According to ChEMBL document CHEMBL5528029, “Design, synthesis, and biological evaluation of novel discoidin domain receptor inhibitors for the treatment of lung adenocarcinoma and pulmonary fibrosis” (Eur J Med Chem, 2024):

Tests used:
[1] = target: BDNF/NT-3 growth factors receptor (Homo sapiens) (UniProt Q16620); assay: Inhibition of TRK-B (unknown origin) assessed as remaining activity at 1 uM using fluorescein-poly GAT as substrate in presence of ATP by TR-FRET assay relative to control
[2] = target: High affinity nerve growth factor receptor (Homo sapiens) (UniProt P04629); assay: Inhibition of TRK-A (unknown origin) assessed as remaining activity at 1 uM using fluorescein-poly GAT as substrate in presence of ATP by TR-FRET assay relative to control
High affinity nerve growth factor receptor (Homo sapiens), sequence (P04629 33-796 limits assumed): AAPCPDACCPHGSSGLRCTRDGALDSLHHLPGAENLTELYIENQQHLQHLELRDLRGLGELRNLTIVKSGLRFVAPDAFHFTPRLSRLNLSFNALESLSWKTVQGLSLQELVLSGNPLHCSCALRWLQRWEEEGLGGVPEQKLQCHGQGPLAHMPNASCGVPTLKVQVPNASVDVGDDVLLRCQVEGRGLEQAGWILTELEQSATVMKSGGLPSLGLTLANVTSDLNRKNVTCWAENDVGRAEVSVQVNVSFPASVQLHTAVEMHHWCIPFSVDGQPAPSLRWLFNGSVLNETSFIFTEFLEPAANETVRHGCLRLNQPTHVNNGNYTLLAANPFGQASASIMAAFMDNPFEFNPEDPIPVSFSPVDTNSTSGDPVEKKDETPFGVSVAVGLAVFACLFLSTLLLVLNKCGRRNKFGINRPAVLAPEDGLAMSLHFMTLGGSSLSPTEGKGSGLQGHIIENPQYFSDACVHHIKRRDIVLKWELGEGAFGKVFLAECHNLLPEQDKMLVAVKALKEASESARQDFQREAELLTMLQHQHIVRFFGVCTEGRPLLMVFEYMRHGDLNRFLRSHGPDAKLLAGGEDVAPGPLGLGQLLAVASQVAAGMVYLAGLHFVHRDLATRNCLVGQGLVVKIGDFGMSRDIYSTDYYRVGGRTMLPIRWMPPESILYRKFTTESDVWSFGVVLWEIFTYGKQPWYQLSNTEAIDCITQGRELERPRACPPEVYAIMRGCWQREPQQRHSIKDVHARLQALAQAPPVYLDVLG

[3] = target: T1, Discoidin domain-containing receptor 2 (Homo sapiens) (UniProt Q16832); assay: Inhibition of DDR2 (unknown origin) assessed as remaining activity at 1 uM using fluorescein-poly GAT as substrate in presence of ATP by TR-FRET assay relative to control
T1 sequence (whole entry): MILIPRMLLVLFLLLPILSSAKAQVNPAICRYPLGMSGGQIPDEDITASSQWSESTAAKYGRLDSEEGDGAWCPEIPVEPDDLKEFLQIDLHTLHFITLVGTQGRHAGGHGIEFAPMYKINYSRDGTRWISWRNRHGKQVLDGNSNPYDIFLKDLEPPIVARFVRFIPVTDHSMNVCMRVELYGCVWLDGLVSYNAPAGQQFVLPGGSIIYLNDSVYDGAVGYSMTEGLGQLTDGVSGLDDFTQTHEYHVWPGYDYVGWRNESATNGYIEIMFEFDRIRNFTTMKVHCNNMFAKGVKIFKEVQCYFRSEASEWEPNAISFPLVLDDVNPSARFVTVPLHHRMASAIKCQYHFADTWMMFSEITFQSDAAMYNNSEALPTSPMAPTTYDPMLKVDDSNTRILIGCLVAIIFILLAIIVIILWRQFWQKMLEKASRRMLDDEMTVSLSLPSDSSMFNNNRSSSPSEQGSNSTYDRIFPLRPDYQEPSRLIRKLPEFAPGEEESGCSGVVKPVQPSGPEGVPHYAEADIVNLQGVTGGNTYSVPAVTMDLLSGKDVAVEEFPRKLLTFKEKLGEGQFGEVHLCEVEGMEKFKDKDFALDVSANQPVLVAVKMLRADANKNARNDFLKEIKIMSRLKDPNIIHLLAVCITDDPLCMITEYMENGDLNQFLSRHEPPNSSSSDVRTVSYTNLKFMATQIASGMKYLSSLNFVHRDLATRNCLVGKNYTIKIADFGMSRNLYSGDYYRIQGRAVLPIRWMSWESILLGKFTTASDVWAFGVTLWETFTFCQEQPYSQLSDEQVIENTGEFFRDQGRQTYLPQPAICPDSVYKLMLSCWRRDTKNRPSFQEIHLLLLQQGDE

[4] = target: NT-3 growth factor receptor (Homo sapiens) (UniProt Q16288); assay: Inhibition of TRK-C (unknown origin) assessed as remaining activity at 1 uM using fluorescein-poly GAT as substrate in presence of ATP by TR-FRET assay relative to control
NT-3 growth factor receptor (Homo sapiens), sequence (Q16288 32-839 limits assumed): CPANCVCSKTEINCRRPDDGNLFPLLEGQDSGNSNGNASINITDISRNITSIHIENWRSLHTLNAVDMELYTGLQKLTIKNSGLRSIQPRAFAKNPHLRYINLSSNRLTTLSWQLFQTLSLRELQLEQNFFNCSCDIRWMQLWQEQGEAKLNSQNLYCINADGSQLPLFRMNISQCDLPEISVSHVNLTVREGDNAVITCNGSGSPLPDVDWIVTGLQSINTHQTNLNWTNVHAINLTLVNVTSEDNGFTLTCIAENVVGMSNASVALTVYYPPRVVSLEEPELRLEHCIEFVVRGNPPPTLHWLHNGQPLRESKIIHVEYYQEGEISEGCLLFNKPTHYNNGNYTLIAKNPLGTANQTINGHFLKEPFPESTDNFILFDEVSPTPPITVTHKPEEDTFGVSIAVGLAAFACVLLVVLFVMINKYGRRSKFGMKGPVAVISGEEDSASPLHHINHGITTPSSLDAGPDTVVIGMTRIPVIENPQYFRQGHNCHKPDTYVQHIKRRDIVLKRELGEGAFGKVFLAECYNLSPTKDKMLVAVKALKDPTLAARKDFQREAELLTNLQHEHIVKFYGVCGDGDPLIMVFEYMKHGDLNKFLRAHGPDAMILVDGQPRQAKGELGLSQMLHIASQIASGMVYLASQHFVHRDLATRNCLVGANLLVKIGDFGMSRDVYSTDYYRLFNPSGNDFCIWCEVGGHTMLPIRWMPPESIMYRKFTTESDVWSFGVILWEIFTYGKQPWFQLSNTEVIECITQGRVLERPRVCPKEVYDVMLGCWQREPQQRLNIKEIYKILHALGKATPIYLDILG

[5] = target: T2, Discoidin domain-containing receptor 2 (Homo sapiens, UniProt Q16832); assay: Inhibition of DDR2 (unknown origin)
T2 sequence (Q16832 whole entry): T1 sequence (whole entry)

NCI-H1975 = assay: Antiproliferative activity against human NCI-H1975 cells incubated for 72 hrs by MTT assay; conditions: NCI-H1975, 72 h
[6] = Antiproliferative activity against human SPCA1 cells incubated for 72 hrs by MTT assay; conditions: SPCA1, 72 h
A549 = assay: Antiproliferative activity against human A549 cells incubated for 72 hrs by MTT assay; conditions: A549, 72 h

BDNF/NT-3 growth factors receptor (Homo sapiens), sequence (Q16620 32-822 limits assumed): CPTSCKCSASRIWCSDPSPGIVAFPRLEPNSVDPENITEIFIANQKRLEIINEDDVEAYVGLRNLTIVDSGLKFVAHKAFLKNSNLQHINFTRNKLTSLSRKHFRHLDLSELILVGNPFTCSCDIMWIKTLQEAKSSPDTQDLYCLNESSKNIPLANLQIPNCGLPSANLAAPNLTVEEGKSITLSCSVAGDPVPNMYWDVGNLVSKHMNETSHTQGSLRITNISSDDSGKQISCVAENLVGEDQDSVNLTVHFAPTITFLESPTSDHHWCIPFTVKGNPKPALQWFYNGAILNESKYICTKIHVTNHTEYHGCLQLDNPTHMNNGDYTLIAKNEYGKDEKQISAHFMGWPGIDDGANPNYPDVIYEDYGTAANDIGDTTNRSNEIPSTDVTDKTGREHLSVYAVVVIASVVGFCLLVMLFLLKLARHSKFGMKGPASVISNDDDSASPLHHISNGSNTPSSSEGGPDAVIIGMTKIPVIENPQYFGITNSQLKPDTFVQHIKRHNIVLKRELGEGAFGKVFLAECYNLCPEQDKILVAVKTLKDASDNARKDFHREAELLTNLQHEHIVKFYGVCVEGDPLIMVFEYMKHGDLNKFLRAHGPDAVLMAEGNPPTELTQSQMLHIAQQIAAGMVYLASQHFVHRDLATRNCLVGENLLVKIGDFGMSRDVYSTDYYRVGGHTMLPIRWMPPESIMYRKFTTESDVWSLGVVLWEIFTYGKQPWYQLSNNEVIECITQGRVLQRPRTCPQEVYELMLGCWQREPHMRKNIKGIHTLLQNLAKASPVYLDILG

Compound	Activity [1]	Activity [2]	Activity [3]	Activity [4]	IC50 [5]	IC50 (NCI-H1975)	IC50 [6]	IC50 (A549)
O=C(NCc1cn(CC(=O)N2CCOCC2)c2ccc(F)cc12)Nc1ccc(C(F)(F)F)cc1	72.2%	77.5%	90.2%	98.3%	–	–	–	–
COc1ccc(NC(=O)NCc2cn(CC(=O)N3CCOCC3)c3ccc(OC)cc23)cc1	92.5%	98.9%	95.3%	89%	–	–	–	–
COc1ccc2c(c1)c(CNC(=O)Nc1ccccc1Cl)cn2CC(=O)N1CCOCC1	97.2%	91.7%	54.7%	86%	–	–	–	–
Cc1ccc(NC(=O)NCc2cn(CC(=O)N3CCN(C)CC3)c3ccc(F)cc23)cc1	90.4%	91.7%	78.2%	104%	–	–	–	–
COc1ccc(NC(=O)NCc2cn(CC(=O)N3CCN(C)CC3)c3ccc(OC)cc23)cc1	108%	108%	93.4%	94.5%	–	–	–	–
O=C(NCc1cn(CC(=O)N2CCOCC2)c2ccc(F)cc12)Nc1ccc(F)cc1F	72.8%	93.8%	53.5%	82.7%	0.45 µM	1.98 µM	2.82 µM	3.72 µM
COc1ccc2c(c1)c(CNC(=O)Nc1ccc(C(F)(F)F)cc1)cn2CC(=O)N1CCOCC1	79%	71.8%	82.2%	103%	–	–	–	–
O=C(NCc1cn(CC(=O)N2CCCC2)c2ccc(F)cc12)Nc1ccc(C(F)(F)F)cc1	101%	101%	81.1%	94.3%	–	–	–	–
Cc1ccc(NC(=O)NCc2cn(CC(=O)N3CCCCC3)c3ccc(F)cc23)cc1	97%	99.7%	92.5%	99.7%	–	–	–	–
COc1ccc(NC(=O)NCc2cn(CC(=O)N3CCCC3)c3ccc(F)cc23)cc1	83.8%	71.6%	86.3%	110%	–	–	–	–
COc1ccc2c(c1)c(CNC(=O)Nc1ccc(C(F)(F)F)cc1)cn2CC(=O)N1CCCCC1	74.9%	91.6%	73.8%	105%	–	–	–	–
COc1ccc2c(c1)c(CNC(=O)Nc1ccc(C)cc1)cn2CC(=O)N1CCOCC1	84%	81.3%	89.6%	87.5%	–	–	–	–
O=C(NCc1cn(CC(=O)N2CCCCC2)c2ccc(F)cc12)Nc1ccc(F)cc1F	106%	88.2%	41.3%	83.5%	1.19 µM	3.86 µM	1.73 µM	1.67 µM
COc1ccc2c(c1)c(CNC(=O)Nc1ccc(F)cc1F)cn2CC(=O)N1CCCCC1	70.8%	84.7%	74.8%	68.6%	–	–	–	–
Cc1ccc(NC(=O)NCc2cn(CC(=O)N3CCOCC3)c3ccc(F)cc23)cc1	83.8%	114%	72.4%	111%	–	–	–	–
O=C(NCc1cn(CC(=O)N2CCCCC2)c2ccc(F)cc12)Nc1ccc(C(F)(F)F)cc1	108%	87%	70.1%	105%	–	–	–	–
COc1ccc(NC(=O)NCc2cn(CC(=O)N3CCCC3)c3ccc(OC)cc23)cc1	102%	113%	91.5%	88.1%	–	–	–	–
CN1CCN(C(=O)Cn2cc(CNC(=O)Nc3ccc(C(F)(F)F)cc3)c3cc(F)ccc32)CC1	105%	81.5%	74.2%	93.7%	–	–	–	–
COc1ccc2c(c1)c(CNC(=O)Nc1ccc(F)cc1F)cn2CC(=O)N1CCOCC1	73.1%	77.8%	74.7%	60.5%	–	–	–	–
O=C(NCc1cn(CC(=O)N2CCOCC2)c2ccc(F)cc12)Nc1ccccc1Cl	83.8%	78%	54.5%	87.4%	–	–	–	–

Compound	Activity [1]	Activity [2]	Activity [3]	Activity [4]	IC50 [5]	IC50 (NCI-H1975)	IC50 [6]	IC50 (A549)
O=C(NCc1cn(CC(=O)N2CCCCC2)c2ccc(F)cc12)Nc1ccccc1Cl	75.7%	90.3%	48%	84.2%	–	–	–	–
CN1CCN(C(=O)Cn2cc(CNC(=O)Nc3ccccc3Cl)c3cc(F)ccc32)CC1	89.6%	81.8%	73.5%	90.2%	–	–	–	–
COc1ccc2c(c1)c(CNC(=O)Nc1ccc(C)cc1)cn2CC(=O)N1CCN(C)CC1	108%	98.7%	96.2%	90.9%	–	–	–	–
COc1ccc(NC(=O)NCc2cn(CC(=O)N3CCCCC3)c3ccc(F)cc23)cc1	80.1%	92.7%	80.6%	101%	–	–	–	–
O=C(NCc1cn(CC(=O)N2CCCC2)c2ccc(F)cc12)Nc1ccc(F)cc1F	69.5%	95.7%	32.5%	75.2%	1.67 µM	5.34 µM	10.5 µM	11.2 µM
COc1ccc2c(c1)c(CNC(=O)Nc1ccccc1Cl)cn2CC(=O)N1CCN(C)CC1	93.4%	94%	55.9%	82.9%	–	–	–	–
COc1ccc2c(c1)c(CNC(=O)Nc1ccc(C)cc1)cn2CC(=O)N1CCCCC1	85.7%	82.3%	83.2%	92.5%	–	–	–	–
COc1ccc2c(c1)c(CNC(=O)Nc1ccccc1Cl)cn2CC(=O)N1CCCCC1	87.4%	74.8%	64.3%	68.9%	–	–	–	–
COc1ccc2c(c1)c(CNC(=O)Nc1ccc(C)cc1)cn2CC(=O)N1CCCC1	87.9%	75.2%	84.8%	77.5%	–	–	–	–
COc1ccc(NC(=O)NCc2cn(CC(=O)N3CCCCC3)c3ccc(OC)cc23)cc1	87.4%	92.1%	72.4%	92.7%	–	–	–	–
COc1ccc2c(c1)c(CNC(=O)Nc1ccc(C(F)(F)F)cc1)cn2CC(=O)N1CCN(C)CC1	104%	96%	102%	106%	–	–	–	–
COc1ccc2c(c1)c(CNC(=O)Nc1ccc(F)cc1F)cn2CC(=O)N1CCCC1	104%	74%	50.8%	76.2%	1.33 µM	3.72 µM	7.35 µM	6.96 µM
COc1ccc2c(c1)c(CNC(=O)Nc1ccccc1Cl)cn2CC(=O)N1CCCC1	99.3%	95.7%	67.8%	69.6%	–	–	–	–
Cc1ccc(NC(=O)NCc2cn(CC(=O)N3CCCC3)c3ccc(F)cc23)cc1	99.5%	101%	95.4%	91.2%	–	–	–	–
COc1ccc2c(c1)c(CNC(=O)Nc1ccc(C(F)(F)F)cc1)cn2CC(=O)N1CCCC1	72.2%	90.4%	99.5%	89.7%	–	–	–	–
COc1ccc(NC(=O)NCc2cn(CC(=O)N3CCOCC3)c3ccc(F)cc23)cc1	107%	90.8%	79.4%	82.7%	–	–	–	–
O=C(NCc1cn(CC(=O)N2CCCC2)c2ccc(F)cc12)Nc1ccccc1Cl	81.5%	78%	73.8%	68.6%	–	–	–	–
COc1ccc(NC(=O)NCc2cn(CC(=O)N3CCN(C)CC3)c3ccc(F)cc23)cc1	104%	80%	73.5%	106%	–	–	–	–
COc1ccc2c(c1)c(CNC(=O)Nc1ccc(F)cc1F)cn2CC(=O)N1CCN(C)CC1	88.9%	93.1%	66.5%	68.8%	–	–	–	–
